According to patent US20230390384A1 (priority 2020, published 2023):
“Also recorded” adds a separate entry of the source.

Test system: RBD, a South African mutant antigen of COVID-19
Set-up: species or system SARS-CoV-2
Details: in vivo

Row | Substance | antigen-specific antibody titer (RBD South African mutant)
1 | N-palmitoyl-S-[2,3-bis(palmitoyloxy)-(2RS)-propyl]-[R]-cystein-SKKKK [Pam3CSK4] | higher antibody titer; also recorded: highest antibody titer
2 | FSL-1 | higher antibody titer; also recorded: highest antibody titer
